Target: Bovine Serum Albumin (BSA) (Bos taurus, UniProt P02769)
Assay: tryptophan fluorescence quenching titration
Assay type: binding
Details: 298 K; phosphate buffer, pH not given; 10 μM BSA stock; double-log

Chain of Bovine Serum Albumin (BSA) (P02769 25-607): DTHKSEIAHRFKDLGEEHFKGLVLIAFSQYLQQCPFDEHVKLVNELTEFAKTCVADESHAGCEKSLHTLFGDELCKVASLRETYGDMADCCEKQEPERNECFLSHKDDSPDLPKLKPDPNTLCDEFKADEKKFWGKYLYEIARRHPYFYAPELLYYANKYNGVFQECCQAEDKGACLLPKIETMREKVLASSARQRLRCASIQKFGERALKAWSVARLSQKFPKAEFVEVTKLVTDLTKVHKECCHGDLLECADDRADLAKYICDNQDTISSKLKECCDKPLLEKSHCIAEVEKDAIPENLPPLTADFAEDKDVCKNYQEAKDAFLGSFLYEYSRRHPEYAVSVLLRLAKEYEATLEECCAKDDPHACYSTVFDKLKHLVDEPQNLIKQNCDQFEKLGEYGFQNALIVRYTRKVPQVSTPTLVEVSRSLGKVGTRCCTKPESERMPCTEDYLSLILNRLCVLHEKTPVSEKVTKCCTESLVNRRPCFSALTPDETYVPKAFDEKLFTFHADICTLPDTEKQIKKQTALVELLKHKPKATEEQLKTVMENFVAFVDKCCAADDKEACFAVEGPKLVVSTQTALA

Kb [M⁻¹]	Structure (SMILES)
2.47e+06	CC=NNC(=O)Cc1ccccc1 [EPAH, N′-ethylidene-2-phenylacetohydrazide]
44500	O=C(Cc1ccccc1)NN=Cc1ccco1 [FMPAH, N’-(furan-2-ylmethylene)-2-phenylacetohydrazide]
683000	O=C(Cc1ccccc1)NN=Cc1ccccc1O [HBPAH, N'-(2-hydroxybenzylidene)-2-phenylacetohydrazide]
1.75e+08	O=C(Cc1ccccc1)N/N=C/C=C/c1ccccc1 [PPAH, 2-Phenyl-N'-(3-phenylallylidene)acetohydrazide]
